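Test compounds were applied to cells in 96-well plates for 48 hours at 5 doses. GI50 = concentration required for 50% inhibition of growth.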 Active and inactive are the calls of the source. Rule as the data show it: active = GI50 up to about 1.1 µM and inactive = higher.
Legend:
Test in all cases: NCI tumour cell line growth inhibition, 48 h
786-0 = tested on: 786-0
A498 = tested on: A498
A549 = tested on: A549
ACHN = tested on: ACHN
CAKI-1 = tested on: CAKI-1
CCRF-CEM = tested on: CCRF-CEM
COLO 205 = tested on: COLO 205
DU-145 = tested on: DU-145
EKVX = tested on: EKVX
HCC 2998 = tested on: HCC 2998
HCT-116 = tested on: HCT-116
HCT-15 = tested on: HCT-15
HL-60 = tested on: HL-60
HOP-62 = tested on: HOP-62
HOP-92 = tested on: HOP-92
HT-29 = tested on: HT-29
Hs-578T = tested on: Hs-578T
IGROV-1 = tested on: IGROV-1
K562 = tested on: K562
KM12 = tested on: KM12
LOX IMVI = tested on: LOX IMVI
M14 = tested on: M14
MCF7 = tested on: MCF7
MDA-MB-231 = tested on: MDA-MB-231
MDA-MB-435 = tested on: MDA-MB-435
MDA-N = tested on: MDA-N
MOLT-4 = tested on: MOLT-4
Malme-3M = tested on: Malme-3M
NCI-H226 = tested on: NCI-H226
NCI-H23 = tested on: NCI-H23
NCI-H460 = tested on: NCI-H460
NCI-H522 = tested on: NCI-H522
NCI/ADR-RES = tested on: NCI/ADR-RES
OVCAR-3 = tested on: OVCAR-3
OVCAR-4 = tested on: OVCAR-4
OVCAR-5 = tested on: OVCAR-5
OVCAR-8 = tested on: OVCAR-8
PC-3 = tested on: PC-3
RPMI-8226 = tested on: RPMI-8226
RXF 393 = tested on: RXF 393
SF-268 = tested on: SF-268
SF-295 = tested on: SF-295
SF-539 = tested on: SF-539
SK-MEL-28 = tested on: SK-MEL-28
SK-MEL-5 = tested on: SK-MEL-5
SK-OV-3 = tested on: SK-OV-3
SN12C = tested on: SN12C
SNB-19 = tested on: SNB-19
SNB-75 = tested on: SNB-75
SR = tested on: SR
SW-620 = tested on: SW-620
T47D = tested on: T47D
TK-10 = tested on: TK-10
U-251 = tested on: U-251
UACC-257 = tested on: UACC-257
UACC-62 = tested on: UACC-62
UO-31 = tested on: UO-31
SK-MEL-2 = tested on: SK-MEL-2

`CN(C)c1n/c(=N/Cc2ccccc2)ss1` was tested. Which GI50 (786-0) did it give?
Its GI50 is > 6.82 µM (inactive).

What about the GI50 (A498) of the same compound?
The GI50 was > 10 µM (inactive).

What about the GI50 (A549) of the same compound?
The GI50 was > 10 µM (inactive).

What about the GI50 (ACHN) of the same compound?
The GI50 was > 10 µM (inactive).

And the GI50 (CAKI-1)?
Its GI50 is > 10 µM (inactive).

What about the GI50 (CCRF-CEM) of the same compound?
Its GI50 is 0.646 µM (active).

And the GI50 (COLO 205)?
The GI50 was > 10 µM (inactive).

What about the GI50 (DU-145) of the same compound?
The GI50 was > 10 µM (inactive).

What about the GI50 (EKVX) of the same compound?
Its GI50 is > 10 µM (inactive).

What about the GI50 (HCC 2998) of the same compound?
Its GI50 is > 9.64 µM (inactive).

What about the GI50 (HCT-116) of the same compound?
Its GI50 is > 10 µM (inactive).

What about the GI50 (HCT-15) of the same compound?
The GI50 was greater than 10 µM.

What about the GI50 (HL-60) of the same compound?
The GI50 was > 5.2 µM (inactive).

And the GI50 (HOP-62)?
Its GI50 is > 10 µM (inactive).

What about the GI50 (HOP-92) of the same compound?
Its GI50 is > 10 µM (inactive).

What about the GI50 (HT-29) of the same compound?
Its GI50 is > 10 µM (inactive).

What about the GI50 (Hs-578T) of the same compound?
The GI50 was > 10 µM (inactive).

And the GI50 (IGROV-1)?
Its GI50 is > 10 µM (inactive).

And the GI50 (K562)?
The GI50 was 3.21 µM (inactive).

What about the GI50 (KM12) of the same compound?
The GI50 was > 10 µM (inactive).

And the GI50 (LOX IMVI)?
The GI50 was > 5.77 µM (inactive).

And the GI50 (M14)?
Its GI50 is > 10 µM (inactive).

And the GI50 (MCF7)?
Its GI50 is > 10 µM (inactive).

And the GI50 (MDA-MB-231)?
The GI50 was > 10 µM (inactive).

What about the GI50 (MDA-MB-435) of the same compound?
The GI50 was > 10 µM (inactive).

And the GI50 (MDA-N)?
Its GI50 is > 10 µM (inactive).

What about the GI50 (MOLT-4) of the same compound?
Its GI50 is 1.81 µM (inactive).

And the GI50 (Malme-3M)?
The GI50 was > 10 µM (inactive).

What about the GI50 (NCI-H226) of the same compound?
Its GI50 is > 10 µM (inactive).

And the GI50 (NCI-H23)?
The GI50 was > 10 µM (inactive).

And the GI50 (NCI-H460)?
The GI50 was > 10 µM (inactive).

And the GI50 (NCI-H522)?
Its GI50 is 2.61 µM (inactive).

What about the GI50 (NCI/ADR-RES) of the same compound?
Its GI50 is > 10 µM (inactive).

What about the GI50 (OVCAR-3) of the same compound?
The GI50 was > 10 µM (inactive).

And the GI50 (OVCAR-4)?
The GI50 was > 10 µM (inactive).

What about the GI50 (OVCAR-5) of the same compound?
The GI50 was > 10 µM (inactive).

What about the GI50 (OVCAR-8) of the same compound?
The GI50 was > 10 µM (inactive).

And the GI50 (PC-3)?
The GI50 was > 10 µM (inactive).

What about the GI50 (RPMI-8226) of the same compound?
The GI50 was 2.9 µM (inactive).

And the GI50 (RXF 393)?
The GI50 was > 10 µM (inactive).

What about the GI50 (SF-268) of the same compound?
The GI50 was > 10 µM (inactive).

And the GI50 (SF-295)?
Its GI50 is > 10 µM (inactive).

What about the GI50 (SF-539) of the same compound?
The GI50 was > 10 µM (inactive).

What about the GI50 (SK-MEL-28) of the same compound?
Its GI50 is > 10 µM (inactive).

And the GI50 (SK-MEL-5)?
The GI50 was > 10 µM (inactive).

And the GI50 (SK-OV-3)?
The GI50 was > 10 µM (inactive).

And the GI50 (SN12C)?
Its GI50 is > 10 µM (inactive).

What about the GI50 (SNB-19) of the same compound?
The GI50 was > 10 µM (inactive).

What about the GI50 (SNB-75) of the same compound?
Its GI50 is > 10 µM (inactive).

And the GI50 (SR)?
Its GI50 is 0.587 µM (active).

And the GI50 (SW-620)?
Its GI50 is > 10 µM (inactive).

What about the GI50 (T47D) of the same compound?
Its GI50 is > 10 µM (inactive).

What about the GI50 (TK-10) of the same compound?
The GI50 was > 10 µM (inactive).

And the GI50 (U-251)?
Its GI50 is > 10 µM (inactive).

And the GI50 (UACC-257)?
Its GI50 is > 10 µM (inactive).

And the GI50 (UACC-62)?
The GI50 was > 10 µM (inactive).

What about the GI50 (UO-31) of the same compound?
The GI50 was 9.25 µM (inactive).

For `CC(C)(C)c1cc([N+](=O)[O-])cc([N+](=O)[O-])c1O` [DINOTERB], which GI50 (786-0) is on record?
The GI50 was > 10 µM (inactive).

And the GI50 (A549)?
Its GI50 is 7.64 µM (inactive).

And the GI50 (ACHN)?
The GI50 was > 10 µM (inactive).

And the GI50 (CAKI-1)?
Its GI50 is 5.6 µM (inactive).

And the GI50 (CCRF-CEM)?
The GI50 was > 10 µM (inactive).

What about the GI50 (COLO 205) of the same compound?
The GI50 was > 10 µM (inactive).

And the GI50 (DU-145)?
The GI50 was 9.59 µM (inactive).

What about the GI50 (EKVX) of the same compound?
The GI50 was 9.86 µM (inactive).

And the GI50 (HCC 2998)?
Its GI50 is > 10 µM (inactive).

And the GI50 (HCT-116)?
Its GI50 is > 10 µM (inactive).

And the GI50 (HCT-15)?
Its GI50 is greater than 10 µM.

And the GI50 (HL-60)?
The GI50 was > 10 µM (inactive).

And the GI50 (HOP-62)?
The GI50 was > 10 µM (inactive).

And the GI50 (HOP-92)?
The GI50 was 2.77 µM (inactive).

What about the GI50 (HT-29) of the same compound?
The GI50 was > 10 µM (inactive).

What about the GI50 (Hs-578T) of the same compound?
The GI50 was 8.71 µM (inactive).

What about the GI50 (IGROV-1) of the same compound?
The GI50 was > 10 µM (inactive).

And the GI50 (K562)?
The GI50 was 9.29 µM (inactive).

What about the GI50 (KM12) of the same compound?
Its GI50 is > 10 µM (inactive).

And the GI50 (LOX IMVI)?
Its GI50 is > 10 µM (inactive).

What about the GI50 (M14) of the same compound?
Its GI50 is > 10 µM (inactive).

And the GI50 (MCF7)?
Its GI50 is > 10 µM (inactive).

And the GI50 (MDA-MB-231)?
Its GI50 is > 10 µM (inactive).

And the GI50 (MDA-MB-435)?
Its GI50 is > 10 µM (inactive).

And the GI50 (MDA-N)?
Its GI50 is > 10 µM (inactive).

And the GI50 (MOLT-4)?
Its GI50 is > 10 µM (inactive).

What about the GI50 (NCI-H226) of the same compound?
The GI50 was > 10 µM (inactive).

What about the GI50 (NCI-H23) of the same compound?
Its GI50 is > 10 µM (inactive).

And the GI50 (NCI-H460)?
The GI50 was 7.98 µM (inactive).

And the GI50 (NCI-H522)?
Its GI50 is > 10 µM (inactive).

And the GI50 (NCI/ADR-RES)?
The GI50 was > 10 µM (inactive).

What about the GI50 (OVCAR-3) of the same compound?
Its GI50 is > 10 µM (inactive).

And the GI50 (OVCAR-4)?
Its GI50 is > 10 µM (inactive).

And the GI50 (OVCAR-5)?
The GI50 was > 10 µM (inactive).

And the GI50 (OVCAR-8)?
Its GI50 is > 10 µM (inactive).

What about the GI50 (PC-3) of the same compound?
The GI50 was 5.52 µM (inactive).

What about the GI50 (RPMI-8226) of the same compound?
The GI50 was 4.12 µM (inactive).

What about the GI50 (RXF 393) of the same compound?
The GI50 was > 10 µM (inactive).

What about the GI50 (SF-268) of the same compound?
The GI50 was > 10 µM (inactive).

And the GI50 (SF-295)?
The GI50 was > 10 µM (inactive).

And the GI50 (SF-539)?
Its GI50 is > 10 µM (inactive).

And the GI50 (SK-MEL-28)?
The GI50 was > 10 µM (inactive).

What about the GI50 (SK-MEL-2) of the same compound?
The GI50 was > 10 µM (inactive).

What about the GI50 (SK-MEL-5) of the same compound?
The GI50 was 6.47 µM (inactive).

What about the GI50 (SK-OV-3) of the same compound?
The GI50 was > 10 µM (inactive).

And the GI50 (SN12C)?
The GI50 was > 10 µM (inactive).

And the GI50 (SNB-19)?
Its GI50 is > 10 µM (inactive).

What about the GI50 (SNB-75) of the same compound?
The GI50 was > 10 µM (inactive).

What about the GI50 (SR) of the same compound?
Its GI50 is > 10 µM (inactive).

And the GI50 (SW-620)?
Its GI50 is > 10 µM (inactive).

And the GI50 (T47D)?
The GI50 was > 10 µM (inactive).

What about the GI50 (TK-10) of the same compound?
The GI50 was > 10 µM (inactive).

What about the GI50 (U-251) of the same compound?
The GI50 was > 10 µM (inactive).

And the GI50 (UACC-257)?
Its GI50 is 8.57 µM (inactive).

What about the GI50 (UACC-62) of the same compound?
The GI50 was > 10 µM (inactive).

What about the GI50 (UO-31) of the same compound?
Its GI50 is > 10 µM (inactive).
